Publication PMC9774648, “Synthesis, Physicochemical Properties and Molecular Docking of New Benzothiazole Derivatives as Antimicrobial Agents Targeting DHPS Enzyme” (Antibiotics, 2022)
≈ marks a conversion by molar mass, not a printed value. Like-named read-outs stand apart in the source and are kept apart here.

Assays:
S. aureus = experiment: MIC, twofold serial dilution, S. aureus; assay type: cell-based; details: Staphylococcus aureus; twofold serial dilution in broth, 37 °C 16–20 h; read-out: The Minimum Inhibitory Concentration (MIC), S. aureus
Experimental: The new synthetic compounds, 6a–c, 12a–c, 14a–c, 16a–c and 19a–e, were tested in vitro to evaluate antibacterial activities against Gram-negative and Gram-positive bacteria, such as E. coli (ATCC: 3008), K. pneumonia (ATCC: 4415) and P. aeruginosa (ATCC: 27853), as an example for Gram-negative bacteria, as well as S. aureus (ATCC: 6538) and S. mutans (ATCC: 25175) for Gram-positive bacteria. The antifungal activities were evaluated also for the novel compounds in vitro against C. albicans (ATCC: 10231). The antibacterial and antifungal activities were determined by the agar-diffusion method using gentamicin, ampicillin and sulfadiazine, example of sulfa drug, as standard drugs against Gram-negative and Gram-positive, while nystatin was used as standard drug against the fungal strain. Table 1 summarizes the results for all tested compounds as the average diameter of inhibition zones of microbial growth around the discs in mm ± SD.
For each strain, three to five isolated colonies were selected from the fresh agar plate and were transferred into a tube containing 3–4 mL of sterile broth medium. The bacterial suspension was mixed well and incubated at 35–37 °C for 2–6 h. The turbidity of the bacterial suspension should be equal to or greater than the turbidity of a McFarland Standard 0.5. After that, 1 mg of the tested compound (antimicrobial agent) was dissolved in 1 mL DMSO and two-fold serial dilution was done using broth medium. A fixed volume of the prepared bacterial inoculum was added to each tube and incubated for at 37 °C 16–20 h. The MIC is defined as the lowest concentration of the antimicrobial agent that inhibits visible growth of the tested isolate as observed with the unaided eye.

P. aeruginosa = experiment: MIC, twofold serial dilution, P. aeruginosa; assay type: cell-based; details: Pseudomonas aeruginosa, read-out: The Minimum Inhibitory Concentration (MIC), P. aeruginosa
[1] = tested on: K. pneumonia (ATCC: 4415); experiment: Agar well diffusion, inhibition zone, K. pneumonia; assay type: cell-based; details: for zone of inhibition at 15000 µg/mL: Klebsiella pneumoniae, read-out: Diameter of the Inhibition Zone, K. pneumonia
K. pneumonia = experiment: MIC, twofold serial dilution, K. pneumonia; assay type: cell-based; details: Klebsiella pneumoniae, read-out: The Minimum Inhibitory Concentration (MIC), K. pneumonia
[2] = tested on: P. aeruginosa (ATCC: 27853); experiment: Agar well diffusion, inhibition zone, P. aeruginosa; assay type: cell-based; details: for zone of inhibition at 15000 µg/mL: Pseudomonas aeruginosa, read-out: Diameter of the Inhibition Zone, P. aeruginosa
[3] = target: DHPS enzyme (dihydropteroate synthase) (Bacillus anthracis, UniProt Q81VW8); experiment: biochemical; details: for inhibition at 0.1 µg/mL / inhibition at 1 µg/mL / inhibition at 10 µg/mL / inhibition at 100 µg/mL: read-out: Inhibition % against DHPS enzyme
Chain of DHPS enzyme (dihydropteroate synthase) (Q81VW8 1-280): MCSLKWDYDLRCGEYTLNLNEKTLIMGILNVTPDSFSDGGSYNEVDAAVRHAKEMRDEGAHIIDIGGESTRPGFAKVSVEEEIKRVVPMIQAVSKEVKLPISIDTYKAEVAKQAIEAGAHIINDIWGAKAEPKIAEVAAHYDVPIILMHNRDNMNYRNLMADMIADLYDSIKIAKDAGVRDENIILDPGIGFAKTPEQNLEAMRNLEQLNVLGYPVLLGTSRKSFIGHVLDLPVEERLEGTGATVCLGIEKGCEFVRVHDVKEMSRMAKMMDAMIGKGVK

S. mutans = experiment: MIC, twofold serial dilution, S. mutans; assay type: cell-based; details: Streptococcus mutans; twofold serial dilution in broth, 37 °C 16–20 h; read-out: The Minimum Inhibitory Concentration (MIC), S. mutans
E. coli (ATCC: 3008) = experiment: Agar well diffusion, inhibition zone, E. coli; assay type: cell-based; details: for zone of inhibition at 15000 µg/mL: Escherichia coli, read-out: Diameter of the Inhibition Zone, E. coli
S. aureus (ATCC: 6538) = experiment: Agar well diffusion, inhibition zone, S. aureus; assay type: cell-based; details: Staphylococcus aureus; agar well diffusion, 15 mg/mL, 100 μL per well, 37 °C 24 h, mean ± SD, triplicate; read-out: Diameter of the Inhibition Zone, S. aureus
S. mutans (ATCC: 25175) = experiment: Agar well diffusion, inhibition zone, S. mutans; assay type: cell-based; details: Streptococcus mutans; agar well diffusion, 15 mg/mL, 100 μL per well, 37 °C 24 h, mean ± SD, triplicate; read-out: Diameter of the Inhibition Zone, S. mutans
[4] = tested on: C. albicans (ATCC: 10231); experiment: Agar well diffusion, inhibition zone, C. albicans; assay type: cell-based; details: Candida albicans, 15 mg/mL, 100 μL per well, mean ± SD, triplicate, read-out: Diameter of the Inhibition Zone, C. albicans
[5] = twofold serial dilution in broth, 37 °C 16–20 h
[6] = agar well diffusion, 15 mg/mL, 100 μL per well, 37 °C 24 h, mean ± SD, triplicate

In the case of `Cc1ccc(S(=O)(=O)NNC(=O)/C(=C/c2ccc(Cl)cc2)c2nc3ccccc3s2)cc1` [Compound 14b], the MIC (S. aureus) is reported as 129 µM (≈ 62.4 µg/mL), the MIC (P. aeruginosa; [5]) is reported as 517 µM (≈ 250 µg/mL) and the melting point is reported as 188 to 189 °C. It also gave a zone of inhibition at 15000 µg/mL [1, 6] of 15.6 ± 0.6 mm, an MIC (K. pneumonia; [5]) of 1030 µM (≈ 500 µg/mL) and a zone of inhibition at 15000 µg/mL [2, 6] of 24.3 ± 0.6 mm. For the same compound, the IC50 [3] was 34.6 µM, the inhibition at 0.1 µg/mL ([3]; 0.1 μg/mL) was 12% and the inhibition at 1 µg/mL ([3]; 1 μg/mL) was 24%. The inhibition at 10 µg/mL ([3]; 10 μg/mL) was 47%, the inhibition at 100 µg/mL ([3]; 100 μg/mL) was 65% and the MIC (S. mutans) was 258 µM (≈ 125 µg/mL). For the same compound, the “Diameter of the Inhibition Zone, E. coli” value (E. coli (ATCC: 3008); [6]) was “-”, the zone of inhibition at 15000 µg/mL (S. aureus (ATCC: 6538)) was 31.6 ± 0.6 mm and the zone of inhibition at 15000 µg/mL (S. mutans (ATCC: 25175)) was 21.6 ± 0.6 mm.
Compound `O=c1[nH][nH]c(-c2ccc(F)cc2)c1-c1nc2ccccc2s1` [Compound 16a, 4-(Benzo[d]thiazole-2-yl)-5-(4-florophenyl)-1H-pyrazol-3(2H)-one] has an MIC (S. aureus) of 1610 µM (≈ 500 µg/mL), an MIC (P. aeruginosa; [5]) of 1610 µM (≈ 500 µg/mL) and a melting point of 238 to 240 °C. For the same compound, the zone of inhibition at 15000 µg/mL [1, 6] was 17.3 ± 0.6 mm, the MIC (K. pneumonia; [5]) was 803 µM (≈ 250 µg/mL) and the zone of inhibition at 15000 µg/mL [2, 6] was 16.6 ± 0.5 mm. The IC50 [3] was 35.9 µM, the inhibition at 0.1 µg/mL ([3]; 0.1 μg/mL) was 12% and the inhibition at 1 µg/mL ([3]; 1 μg/mL) was 26%. For the same compound, the inhibition at 10 µg/mL ([3]; 10 μg/mL) was 49%, the inhibition at 100 µg/mL ([3]; 100 μg/mL) was 70% and the MIC (S. mutans) was 200 µM (≈ 62.3 µg/mL). For the same compound, the “Diameter of the Inhibition Zone, E. coli” value (E. coli (ATCC: 3008); [6]) was “-”, the zone of inhibition at 15000 µg/mL [4] was 12.3 ± 0.5 mm and the zone of inhibition at 15000 µg/mL (S. aureus (ATCC: 6538)) was 15.3 ± 0.5 mm. It also gave a zone of inhibition at 15000 µg/mL (S. mutans (ATCC: 25175)) of 25 ± 0.6 mm.
`O=c1[nH][nH]c(-c2ccc(Cl)cc2)c1-c1nc2ccccc2s1` [Compound 16b, 4-(Benzo[d]thiazole-2-yl)-5-(4-chlorophenyl)-1H-pyrazol-3(2H)-one] showed an MIC (S. aureus) of 191 µM (≈ 62.6 µg/mL), an MIC (P. aeruginosa; [5]) of 762 µM (≈ 250 µg/mL) and a melting point of 236 to 237.5 °C. For the same compound, the “Diameter of the Inhibition Zone, K. pneumonia” value [1, 6] was “-”, the zone of inhibition at 15000 µg/mL [2, 6] was 25.6 ± 0.6 mm and the IC50 [3] was 23.9 µM. It also gave an inhibition at 0.1 µg/mL ([3]; 0.1 μg/mL) of 16%, an inhibition at 1 µg/mL ([3]; 1 μg/mL) of 31% and an inhibition at 10 µg/mL ([3]; 10 μg/mL) of 52%. For the same compound, the inhibition at 100 µg/mL ([3]; 100 μg/mL) was 72%, the MIC (S. mutans) was 191 µM (≈ 62.6 µg/mL) and the “Diameter of the Inhibition Zone, E. coli” value (E. coli (ATCC: 3008); [6]) was “-”. The zone of inhibition at 15000 µg/mL [4] was 10.6 ± 0.5 mm, the zone of inhibition at 15000 µg/mL (S. aureus (ATCC: 6538)) was 35.3 ± 0.6 mm and the zone of inhibition at 15000 µg/mL (S. mutans (ATCC: 25175)) was 24.6 ± 0.6 mm.
`Cc1ccc(-c2[nH][nH]c(=O)c2-c2nc3ccccc3s2)cc1` [Compound 16c, 4-(Benzo[d]thiazole-2-yl)-5-(p-tolyl)-1H-pyrazol-3(2H)-one] gave an MIC (S. aureus) of 25 µM (≈ 7.68 µg/mL), a melting point of 239 to 241 °C and a zone of inhibition at 15000 µg/mL [1, 6] of 24.3 ± 0.6 mm. The MIC (K. pneumonia; [5]) was 813 µM (≈ 250 µg/mL), the “Diameter of the Inhibition Zone, P. aeruginosa” value [2, 6] was “-” and the IC50 [3] was 35.9 µM. It also gave an inhibition at 0.1 µg/mL ([3]; 0.1 μg/mL) of 13%, an inhibition at 1 µg/mL ([3]; 1 μg/mL) of 31% and an inhibition at 10 µg/mL ([3]; 10 μg/mL) of 48%. The inhibition at 100 µg/mL ([3]; 100 μg/mL) was 68%, the MIC (S. mutans) was 203 µM (≈ 62.4 µg/mL) and the “Diameter of the Inhibition Zone, E. coli” value (E. coli (ATCC: 3008); [6]) was “-”. It also gave a zone of inhibition at 15000 µg/mL (S. aureus (ATCC: 6538)) of 40.3 ± 0.6 mm and a zone of inhibition at 15000 µg/mL (S. mutans (ATCC: 25175)) of 31.3 ± 0.6 mm.
With `CNC(C)C1CCC(N)C(OC2C(N)CC(N)C(OC3OCC(C)(O)C(NC)C3O)C2O)O1` (stereo not shown) [Gentamicin, reference compound] the MIC (P. aeruginosa) was 131 µM (≈ 62.6 µg/mL), the zone of inhibition at 15000 µg/mL ([1]; 24 h) was 25 ± 0.5 mm and the MIC (K. pneumonia) was 65 µM (≈ 31 µg/mL). For the same compound, the zone of inhibition at 15000 µg/mL ([2]; 24 h) was 30 ± 0.5 mm and the zone of inhibition at 15000 µg/mL (E. coli (ATCC: 3008); 24 h) was 27 ± 0.5 mm.
Compound `Nc1ccc(S(=O)(=O)Nc2ncccn2)cc1` [Sulfadiazine, reference compound] has an MIC (S. aureus) of 2000 µM (≈ 500 µg/mL), an MIC (P. aeruginosa; [5]) of 999 µM (≈ 250 µg/mL) and a zone of inhibition at 15000 µg/mL [1, 6] of 15.9 ± 0.9 mm. It also gave an MIC (K. pneumonia; [5]) of 999 µM (≈ 250 µg/mL), a zone of inhibition at 15000 µg/mL [2, 6] of 20.6 ± 1.4 mm and an IC50 [3] of 28.5 µM. For the same compound, the inhibition at 0.1 µg/mL [3] was 11%, the inhibition at 1 µg/mL [3] was 26% and the inhibition at 10 µg/mL [3] was 56%. It also gave an inhibition at 100 µg/mL [3] of 75%, an MIC (S. mutans) of 499 µM (≈ 125 µg/mL) and a zone of inhibition at 15000 µg/mL (E. coli (ATCC: 3008); [6]) of 21.4 ± 0.4 mm. For the same compound, the zone of inhibition at 15000 µg/mL (S. aureus (ATCC: 6538)) was 21.5 ± 0.6 mm and the zone of inhibition at 15000 µg/mL (S. mutans (ATCC: 25175)) was 22.2 ± 1.1 mm.
